From publication PMC7180728, “Novel Anthraquinone Compounds Inhibit Colon Cancer Cell Proliferation via the Reactive Oxygen Species/JNK Pathway” (Molecules, 2020)
≈ marks a conversion by molar mass, not a printed value.

Assays:
MCF-7 = experiment: MTT cell proliferation assay, MCF-7; type: cell-based; settings: Homo sapiens, MCF7, MCF-7 breast cancer, 48 h
Protocol: (§1) The effects of the synthesized amide anthraquinone derivatives on the proliferative activity of eight human cancerous cell lines (EC9706, MCF-7, SGC-7901, HepG2, QBC939, HeLa, HCT116 and SW480) in addition to two normal human cell lines (colorectal FHC and liver HL7702) were evaluated using the standard MTT assay.
(§2) The human esophageal cancer cell line EC9706 was obtained from Cancer Hospital and Institute by Prof. Ming Rong Wang, Chinese Academy Medical of Sciences. The human colorectal carcinoma cell lines HCT116 and SW480, hepatoma cell line HepG2, cervical carcinoma cell line HeLa, breast cancer cell line MCF-7, gastric cancer cell line SGC-7901, cholangiocarcinoma cell line QBC939, normal fetal colon cell line FHC and liver cell line HL-7702 were obtained from the Cell Bank of the Shanghai Chinese Academy of Sciences. All cells were cultured in RPMI 1640 medium containing 100 U/mL penicillin and streptomycin and 10% fetal bovine serum and maintained at 37°C under a 5% CO2 atmosphere.
(§3) We analyzed the inhibitory effects of eight anthraquinone-amino acid derivatives on the proliferation of eight tumor cell lines and two normal cell lines in vitro using MTT assays. Cells were added to a 96-well plate with (5,000 cells per well in 100 µL RPMI-1640 medium). Cells were treated with different concentrations (10–100 μg/mL) of 8a–8h for 48 h and then incubated with 20 μL MTT (5 mg/mL) for another 4 h at 37°C. DMSO (150 μL) was then added to each well to dissolve the formazan crystals. The absorbance of each well was read at 490 nm on a microtiter plate ELISA reader. The mean values were obtained from a minimum of three parallel experiments. IC50 values were calculated.

HeLa = experiment: MTT cell proliferation assay, HeLa; type: cell-based; settings: Homo sapiens, HeLa cervical cancer, 48 h
Protocol: as §1, §2, §3

SW480 = experiment: MTT cell proliferation assay, SW480; type: cell-based; settings: Homo sapiens, SW480 colon cancer, 48 h
Protocol: as §1, §2, §3

HCT116 cells = experiment: Annexin V/PI apoptosis assay by flow cytometry; type: cell-based, human; settings: 24 h, control 0.06%
Protocol: Natural anthraquinones, such as rubiadin, physcion, emodin and soranjidiol, have been reported to induce apoptosis in tumor cells. Therefore, after detecting the effect of 8a on tumor cell proliferation, we investigated correlation between the anticancer activity of compound 8a and apoptosis. The effects of compound 8a treatment on HCT116 cell apoptosis were detected by flow cytometry following Annexin V/PI staining.
HCT116 cells were added to a 6-well plate (5 × 10^6/well). After attachment, the cells were treated with 8a for 24 h. Then, the cells were collected and centrifuged (10,000 g × 5 min). Cells were washed once with 1 mL of PBS. Cells were suspended in 500 μL binding buffer (containing 5 μL Annexin V-FITC and 1 μL propidium iodide [PI]) and incubated for 30 min in the dark. Apoptosis cells were detected by flow cytometry (FACSCalibur, BD, The United States).

[1] = system: intracellular ROS in HCT116 cells; experiment: Detection of ROS by DCFH-DA, flow cytometry; type: cell-based, human; settings: compared to DMSO-treated control
Protocol: Intracellular ROS are key factors in the activation of many signaling pathways, involved in a variety of biological functions including apoptosis and necrosis. High levels of ROS are capable of inducing tumor cell apoptosis. We evaluated the ability of the compounds to induce ROS by flow cytometric analysis of the fluorescent probe DCFH-DA. […] Next, we investigated ROS production before and after induction with 8a and NAC (N-acetyl-L-cysteine).
Cells were added to a 6-well plate (1 × 10^4/well) and incubated for 24 h to allow adherence. Set 0.1% DMSO as the control group, 8a as the treatment group, NAC as the treatment group, 8a + NAC as the treatment group. Among them, in the 8a + NAC treatment group, 8a was added after 5 mM NAC treatment for 1 h. Cells that had been treated for 24 h were collected. The cells were then washed three times with PBS and incubated with 10 μM DCFH-DA for 30 min in the dark. ROS levels were analyzed by flow cytometry.

[2] = system: caspase 9, cleaved caspase 9, caspase 3, cleaved caspase 3; experiment: Western blot, caspases; type: cell-based, human; settings: HCT116, western blot
Source text: Caspases represent a key molecular group in the regulation of apoptosis. In caspases, there is an upstream and downstream relationship between the initiator of apoptosis and executioner. Caspase 3 is one of the key executers of apoptosis, as it is either partially or totally responsible for the proteolytic cleavage of many key proteins. For example, when caspase 9 is activated, it activates caspase 3, which ultimately triggers cell apoptosis. After detecting the expression of the corresponding Bcl-2 family proteins after 8a treatment by western blotting, we went on to detect the expression levels of PARP, caspase 9, cleaved caspase 9, caspase 3, and cleaved caspase 3 proteins. […] After 24 h of treatment with zVAD-FMK, cell viability is 93%.
The expression of signaling pathway-related proteins was detected by western blot analysis. Cell (1 × 10^6) were plated in 90-mm dishes and treated with 8a for 24 h. The cells were treated with NAC in the same way as in step 4.7. Resuspend the cells in Buffer A (1 mM EDTA, 1 mM PMSF, 0.28 μg/mL apotinin, 50 μg/mL leupeptin, 7 μg/mL pepstain A) and transferred to a 1 mL glass homogenizer and pull up and down 30 times in an ice bath. Cells were collected and centrifuged (1000 g × 10 min, 4 °C). […] Protein concentrations in the supernatant were determined by using a Minbio BCA protein assay kit. […]

SMILES: CC(C)CC(NC(=O)c1ccc2c(c1[N+](=O)[O-])C(=O)c1ccccc1C2=O)C(=O)O (stereo not drawn) [Compound 8a, N-[(9,10-dihydro-1-nitro-9,10-dioxo-2-anthracenyl)carbonyl-leucine]]
- IC50 (MCF-7): 33.34 ± 0.28 µg/mL (≈ 81.2 µM)
- IC50 (HeLa): 29.75 ± 0.15 µg/mL (≈ 72.5 µM)
- IC50 (SW480): 31.09 ± 0.1 µg/mL (≈ 75.8 µM)
- rate of apoptosis (HCT116 cells; 10 μg/mL): 11.24%
- rate of apoptosis (HCT116 cells; 20 μg/mL): 18.97%
- rate of apoptosis (HCT116 cells; 40 μg/mL): 26.94%
- ROS levels (in words) [1]: increase ROS levels in a dose-dependent manner
- expression of cleaved caspase 9 and cleaved caspase 3 [2]: increased in a dose-dependent manner
- caspase 9 and caspase 3 expression levels ([2]; with increasing 8a concentration): gradually decreased
